Organism: Rattus norvegicus
Experiment: Open TG-GATES - Regimen: Single
Type: toxicity, organism-based, Sprague-Dawley
Parameters: regimen Single, gender Male, age 6 weeks
Settings: in vivo, po, 0 mg/kg, route gavage, dose level Control; for APTT / Bas / Eos / Fbg / Hb / Ht / Lym / MCH / MCHC / MCV / Mono / Neu / PT / RBC / Ret / WBC / Plat: tissue Blood; for KIDNEY_L / KIDNEY_R / KIDNEY_TOTAL: tissue Kidney; for LIVER: tissue Liver

With C[C@H](CS)C(=O)N1CCC[C@H]1C(=O)O [CAPTOPRIL] the TERMINAL_BW (3 h) was 220.9 g, the APTT (3 h) was 16.4 s and the Bas (3 h) was 0%. For the same compound, the Eos (3 h) was 1.2%, the Fbg (3 h) was 204.8 mg/dL and the Hb (3 h) was 13.1 g/dL. It also gave a Ht (3 h) of 39.7%, a Lym (3 h) of 79.2% and an MCH (3 h) of 21.4 pg. The MCHC (3 h) was 33.1%, the MCV (3 h) was 64.5 fL and the Mono (3 h) was 6%. For the same compound, the Neu (3 h) was 14%, the PT (3 h) was 11.7 s and the RBC (3 h) was 615.2 x10_4/ul. It also gave a Ret (3 h) of 7.5%, a WBC (3 h) of 110.3 x10_2/uL and a KIDNEY_L (3 h) of 0.9 g. It also gave a KIDNEY_R (3 h) of 1 g, a KIDNEY_TOTAL (3 h) of 1.9 g and an ALP (3 h, tissue Plasma) of 902.4 IU/L. The ALT (3 h, tissue Plasma) was 34 IU/L, the AST (3 h, tissue Plasma) was 65.2 IU/L and the BUN (3 h, tissue Plasma) was 13 mg/dL. The CRE (3 h, tissue Plasma) was 0.5 mg/dL, the DBIL (3 h, tissue Plasma) was 0.018 mg/dL and the GLC (3 h, tissue Plasma) was 193.6 mg/dL. For the same compound, the IP (3 h, tissue Plasma) was 9.9 mg/dL, the K (3 h, tissue Plasma) was 5.1 meq/L and the LDH (3 h, tissue Plasma) was 84.6 IU/L. The Na (3 h, tissue Plasma) was 137.6 meq/L, the PL (3 h, tissue Plasma) was 127.6 mg/dL and the RALB (3 h, tissue Plasma) was 3.7 g/dL. The TBIL (3 h, tissue Plasma) was 0.4 mg/dL, the TC (3 h, tissue Plasma) was 70.8 mg/dL and the TG (3 h, tissue Plasma) was 42.6 mg/dL. For the same compound, the TP (3 h, tissue Plasma) was 5.4 g/dL, the gamma-GTP (3 h, tissue Plasma) was 1.6 IU/L and the TERMINAL_BW (6 h) was 220.4 g. It also gave an APTT (6 h) of 15.7 s, a Bas (6 h) of 0% and an Eos (6 h) of 1.2%. For the same compound, the Hb (6 h) was 13.5 g/dL, the Ht (6 h) was 41.1% and the Lym (6 h) was 76.8%. It also gave an MCH (6 h) of 21.1 pg, an MCHC (6 h) of 32.9% and an MCV (6 h) of 64.3 fL. The Mono (6 h) was 6.2%, the Neu (6 h) was 16.2% and the PT (6 h) was 11.8 s. It also gave a Plat (6 h) of 118.9 x10_4/uL, an RBC (6 h) of 639.6 x10_4/ul and a Ret (6 h) of 7.5%. The WBC (6 h) was 124.4 x10_2/uL, the KIDNEY_L (6 h) was 1 g and the KIDNEY_R (6 h) was 1 g. The KIDNEY_TOTAL (6 h) was 2 g, the ALP (6 h, tissue Plasma) was 725.4 IU/L and the ALT (6 h, tissue Plasma) was 31.2 IU/L. The AST (6 h, tissue Plasma) was 58.4 IU/L, the BUN (6 h, tissue Plasma) was 11.8 mg/dL and the CRE (6 h, tissue Plasma) was 0.6 mg/dL. For the same compound, the DBIL (6 h, tissue Plasma) was 0.012 mg/dL, the GLC (6 h, tissue Plasma) was 198.2 mg/dL and the K (6 h, tissue Plasma) was 4.7 meq/L. It also gave an LDH (6 h, tissue Plasma) of 75.6 IU/L, a Na (6 h, tissue Plasma) of 139 meq/L and a PL (6 h, tissue Plasma) of 135.6 mg/dL. For the same compound, the RALB (6 h, tissue Plasma) was 3.6 g/dL, the TBIL (6 h, tissue Plasma) was 0.3 mg/dL and the TC (6 h, tissue Plasma) was 76.8 mg/dL. It also gave a TG (6 h, tissue Plasma) of 60 mg/dL, a TP (6 h, tissue Plasma) of 5.3 g/dL and a gamma-GTP (6 h, tissue Plasma) of 1.4 IU/L. It also gave a TERMINAL_BW (9 h) of 222.4 g, an APTT (9 h) of 16.3 s and a Bas (9 h) of 0%. For the same compound, the Eos (9 h) was 1%, the Fbg (9 h) was 207.2 mg/dL and the Hb (9 h) was 12.9 g/dL. It also gave a Ht (9 h) of 39.1%, a Lym (9 h) of 79.8% and an MCH (9 h) of 21.2 pg. For the same compound, the MCHC (9 h) was 33%, the MCV (9 h) was 64.5 fL and the Mono (9 h) was 5.4%. The Neu (9 h) was 14%, the PT (9 h) was 12.2 s and the Plat (9 h) was 118.8 x10_4/uL. It also gave an RBC (9 h) of 607 x10_4/ul, a Ret (9 h) of 7.9% and a WBC (9 h) of 89.1 x10_2/uL. It also gave a KIDNEY_L (9 h) of 1 g, a KIDNEY_R (9 h) of 1 g and a KIDNEY_TOTAL (9 h) of 2.1 g. It also gave an LIVER (9 h) of 9.6 g, an ALP (9 h, tissue Plasma) of 868 IU/L and an ALT (9 h, tissue Plasma) of 33.4 IU/L. For the same compound, the AST (9 h, tissue Plasma) was 60.2 IU/L, the BUN (9 h, tissue Plasma) was 13.4 mg/dL and the CRE (9 h, tissue Plasma) was 0.4 mg/dL. It also gave a DBIL (9 h, tissue Plasma) of 0.078 mg/dL, a GLC (9 h, tissue Plasma) of 200 mg/dL and an IP (9 h, tissue Plasma) of 10 mg/dL. It also gave a K (9 h, tissue Plasma) of 4.9 meq/L, an LDH (9 h, tissue Plasma) of 53.8 IU/L and a Na (9 h, tissue Plasma) of 137.8 meq/L. The PL (9 h, tissue Plasma) was 132.2 mg/dL, the RALB (9 h, tissue Plasma) was 3.6 g/dL and the TBIL (9 h, tissue Plasma) was 0.4 mg/dL. It also gave a TC (9 h, tissue Plasma) of 68.8 mg/dL, a TG (9 h, tissue Plasma) of 64.8 mg/dL and a TP (9 h, tissue Plasma) of 5.4 g/dL. It also gave a gamma-GTP (9 h, tissue Plasma) of 2 IU/L, a TERMINAL_BW (24 h) of 235.3 g and an APTT (24 h) of 15.7 s. For the same compound, the Bas (24 h) was 0%, the Eos (24 h) was 1.4% and the Hb (24 h) was 13.4 g/dL. The Ht (24 h) was 40.3%, the Lym (24 h) was 77.6% and the MCH (24 h) was 21.7 pg. For the same compound, the MCHC (24 h) was 33.1%, the MCV (24 h) was 65.6 fL and the Mono (24 h) was 5.8%. It also gave a Neu (24 h) of 15.4%, a PT (24 h) of 11.4 s and a Plat (24 h) of 115.5 x10_4/uL. It also gave an RBC (24 h) of 614.6 x10_4/ul, a Ret (24 h) of 9.1% and a WBC (24 h) of 114 x10_2/uL. For the same compound, the KIDNEY_L (24 h) was 1 g, the KIDNEY_R (24 h) was 1 g and the KIDNEY_TOTAL (24 h) was 2 g. The LIVER (24 h) was 11.7 g, the ALP (24 h, tissue Plasma) was 943.6 IU/L and the ALT (24 h, tissue Plasma) was 39 IU/L. It also gave an AST (24 h, tissue Plasma) of 65.2 IU/L, a BUN (24 h, tissue Plasma) of 18.2 mg/dL and a CRE (24 h, tissue Plasma) of 0.6 mg/dL. For the same compound, the Ca (24 h, tissue Plasma) was 11 mg/dL, the DBIL (24 h, tissue Plasma) was 0.082 mg/dL and the GLC (24 h, tissue Plasma) was 199.8 mg/dL. For the same compound, the IP (24 h, tissue Plasma) was 8.5 mg/dL, the K (24 h, tissue Plasma) was 4.6 meq/L and the Na (24 h, tissue Plasma) was 140.2 meq/L. For the same compound, the PL (24 h, tissue Plasma) was 146 mg/dL, the RALB (24 h, tissue Plasma) was 3.9 g/dL and the TBIL (24 h, tissue Plasma) was 0.3 mg/dL. It also gave a TC (24 h, tissue Plasma) of 76.8 mg/dL, a TG (24 h, tissue Plasma) of 95.8 mg/dL and a TP (24 h, tissue Plasma) of 5.7 g/dL.

From ChEMBL document CHEMBL3885861, “Open TG-GATES”
